Results reported in US20240287052A1, “NOVEL OXAZOLE DERIVATIVE AND PHARMACEUTICAL COMPOSITION FOR PREVENTING OR TREATING ALLERGIC DISEASES COMPRISING THE SAME” (AZCURIS CO., LTD., priority 2021, published 2024).
Read-outs that look alike come from different tables or passages of the source.

Assays:
[1] = tested on: Human liver cancer cell line HepG2 cells; assay: Cellular viability, WST-8 assay, without or with human liver microsomes; type: cell-based; details: for Cellular viability (%) (+) microsome: HepG2, with human liver microsomes; for Cellular viability (%) (−) microsome: HepG2, without human liver microsomes
Protocol: (§1) Human liver cancer cell line HepG2 cells were cultured in a medium (high glucose Dulbecco's Modified Eagle Medium, DMEM, HyClone) supplemented with 10% fetal bovine serum (FBS, HyClone) and 1% antibiotic in a thermostat maintained at 37° C. with 5% CO2.
(§2) HepG2 cells, which are adherent cells, were […] or presence of human liver microsomes (Gibco) and NADPH regenerating system.
(§3) Cell cultures were exchanged using […] of medium (high glucose Dulbecco's Modified Eagle Medium, DMEM, HyClone) and incubated for 24 hours.
(§4) After adding 10 μL of WST-8 (abCam), the absorbance was obtained at 460 nm after 5 seconds of orbital shaking with a microplate reader (Tecan, Spark©) 2 hours later.
(§5) The mean of the three values obtained in triplicate was calculated and expressed as % cellular viability compared to vehicle treatment.

IL33 and ST2 binding = target: T1, IL33 and ST2 binding (Homo sapiens, UniProt O95760);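 further: plate ELISA with coated Flag-tagged human IL-33 and His-tagged human ST2, bound ST2 detected by anti-His HRP and TMB absorbance at 450 nm, 2 h compound incubation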
T1 sequence (O95760 112-270 limits assumed): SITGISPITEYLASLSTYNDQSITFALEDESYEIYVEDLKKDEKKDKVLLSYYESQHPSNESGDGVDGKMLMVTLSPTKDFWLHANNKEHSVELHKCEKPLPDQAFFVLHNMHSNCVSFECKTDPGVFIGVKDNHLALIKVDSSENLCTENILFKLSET

[2] = tested on: IL-6 secretion in the human mast cell line HMC 1.1; assay: IL-6 production inhibition assay (IL-33 stimulated HMC 1.1 cells, IL-6 ELISA); type: cell-based; details: for inhibition at 1 µM: 1 μM compound, read-out: Inhibition of hIL-6 production (%) 1 μM; for inhibition at 1 µM / inhibition at 10 µM / inhibition at 0.1 µM: 24 hours; for inhibition at 10 µM: 10 μM compound, read-out: Inhibition of hIL-6 production (%) 10 μM; for EC50: read-out: Inhibition of hIL-6 production EC50; for inhibition at 0.1 µM: 0.1 μM compound, read-out: Inhibition of hIL-6 production (%) 0.1 μM
Protocol: Human mast cell line HMC 1.1 cells were cultured in medium (Iscove's Modified Dulbecco's Medium, IMDM, HyClone) supplemented with […] fetal bovine serum (FBS, HyClone) and 1% antibiotics and maintained at 37° C. with 5% CO2.
HMC 1.1 cells, which are non-adherent cells, were cultured in 0.5 mL of culture medium containing 200 nM of IL-33 wild type human recombinant protein after centrifugation of cells in culture flasks filled to […] capacity and incubated for 24 hours with […], 10 μM, 25 μM, 30 μM or 50 μM of Example compound.
Medium was harvested by centrifugation (2,000×g, 5 min) and stored at −80° C. until ELISA assay.
Experiments were performed according to the protocol using the Human IL-6 ELISA kit (abCam).
The average of the three values obtained in triplicate was calculated and the amount of IL-6 secretion was measured using a standard curve. The measured IL-6 secretion was converted to 100% based on the vehicle treatment sample value to obtain the vehicle %.

[3] = Cellular viability, WST-8 assay, without or with human liver microsomes; type: cell-based
Protocol: as §1, §2, §3, §4, §5

| SMILES | inhibition (IL33 and ST2 binding; 100 µM) [%] | inhibition (IL33 and ST2 binding; 30 µM) [%] | inhibition at 1 µM [2] [%] | inhibition at 10 µM [2] [%] | Cellular viability (%) (+) microsome ([1]; at 160 μM) [at %] | Cellular viability (%) (−) microsome ([1]; at 160 μM) [at %] | also measured |
| --- | --- | --- | --- | --- | --- | --- | --- |
| CCOC(=O)c1coc(-c2ccc(C(F)(F)F)cc2)n1 [Compound 6, Ethyl 2-(4-(trifluoromethyl)phenyl)oxazole-4-carboxylate] | 110 | – | – | – | – | – | Cellular viability (%) (+) microsome ([1]; at 45 μM): 99 at %; Cellular viability (%) (−) microsome ([1]; at 45 μM): 66 at % |
| CCOC(=O)c1nc(-c2ccc(C(F)(F)F)cc2)oc1-c1ccccc1[N+](=O)[O-] [Compound 32, Ethyl 5-(2-nitrophenyl)-2-(4-(trifluoromethyl)phenyl)oxazole-4-carboxylate] | 108 | 107 | – | – | – | – | Cellular viability (%) (+) microsome ([1]; at 25 μM): 95 at %; Cellular viability (%) (−) microsome ([1]; at 25 μM): 81 at % |
| CCOC(=O)c1nc(-c2ccc(C(F)(F)F)cc2)oc1-c1cccc(C#N)c1 [Compound 55, Ethyl 5-(3-cyanophenyl)-2-(4-(trifluoromethyl)phenyl)oxazole-4-carboxylate] | 116 | 115 | 45 | 52 | – | – | EC50 [2]: 0.09 µM; Cellular viability (%) (+) microsome ([1]; at 100 μM): 91 at %; Cellular viability (%) (−) microsome ([1]; at 100 μM): 90 at % |
| CCOC(=O)c1nc(-c2ccc(SC)cc2)oc1-c1ccccc1 [Compound 90, Ethyl 2-(4-(methylthio)phenyl)-5-phenyloxazole-4-carboxylate] | – | – | 54 | 55 | – | – | inhibition at 0.1 µM [2]: 33%; EC50 [2]: 0.49 µM; CC50 at 24 h ([3]; HepG2, with human liver microsomes, read-out: CC50 (μM) (+) microsome): 40.8 µM; CC50 at 24 h ([3]; HepG2 cells, HepG2, without human liver microsomes, read-out: CC50 (μM) (−) microsome): 14 µM; Cellular viability (%) (+) microsome ([1]; at 135 μM): 74 at %; Cellular viability (%) (−) microsome ([1]; at 135 μM): 53 at % |
| CCOC(=O)c1nc(-c2ccc(C(F)(F)F)cc2)oc1-c1ccccc1N [Compound 99, Ethyl 5-(2-aminophenyl)-2-(4-(trifluoromethyl)phenyl)oxazole-4-carboxylate] | – | – | – | – | – | – | Cellular viability (%) (+) microsome ([1]; at 25 μM): 96 at %; Cellular viability (%) (−) microsome ([1]; at 25 μM): 79 at % |
| CN1CCN(CCNC(=O)c2nc(-c3ccc(C(F)(F)F)cc3)oc2-c2ccccc2[N+](=O)[O-])CC1 [Compound 153, N-(2-(4-Methylpiperazin-1-yl)ethyl)-5-(2-nitrophenyl)-2-(4-(trifluoromethyl)phenyl)oxazole-4-carboxamide] | 95 | 92 | – | – | – | – | Cellular viability (%) (+) microsome ([1]; at 50 μM): 36 at %; Cellular viability (%) (−) microsome ([1]; at 50 μM): 19 at % |
| O=C(NCCCn1ccnc1)c1nc(-c2ccc(C(F)(F)F)cc2)oc1-c1ccccc1[N+](=O)[O-] [Compound 158, N-(3-(1H-Imidazol-1-yl)propyl)-5-(2-nitrophenyl)-2-(4-(trifluoromethyl)phenyl)oxazole-4-carboxamide] | 26 | 31 | – | – | – | – | Cellular viability (%) (+) microsome ([1]; at 50 μM): 17 at %; Cellular viability (%) (−) microsome ([1]; at 50 μM): 17 at % |
| CN(C)CCNC(=O)c1nc(-c2ccc(OC(F)(F)F)cc2)oc1-c1ccccc1 [Compound 203, N-(2-(Dimethylamino)ethyl)-5-phenyl-2-(4-(trifluoromethoxy)phenyl)oxazole-4-carboxamide] | 14 | -9 | – | – | – | – | Cellular viability (%) (+) microsome ([1]; at 50 μM): 30 at %; Cellular viability (%) (−) microsome ([1]; at 50 μM): 19 at % |
| COc1ccc(-c2nc(C(=O)NCCN(C)C)c(-c3ccc([N+](=O)[O-])cc3)o2)cc1 [Compound 217, N-(2-(Dimethylamino)ethyl)-2-(4-methoxyphenyl)-5-(4-nitrophenyl)oxazole-4-carboxamide] | -51 | -38 | – | – | – | – | Cellular viability (%) (+) microsome ([1]; at 100 μM): 34 at %; Cellular viability (%) (−) microsome ([1]; at 100 μM): 19 at % |
| CN(C)CCNC(=O)c1nc(-c2ccc(F)c(F)c2)oc1-c1ccccc1 [Compound 231, 2-(3,4-Difluorophenyl)-N-(2-(dimethylamino)ethyl)-5-phenyloxazole-4-carboxamide] | 5 | -8 | – | – | – | – | Cellular viability (%) (+) microsome ([1]; at 50 μM): 29 at %; Cellular viability (%) (−) microsome ([1]; at 50 μM): 17 at % |
| CN(C)CCN1CCN(C(=O)c2nc(-c3ccc(Cl)cc3)oc2-c2ccccc2[N+](=O)[O-])CC1 [Compound 248, (2-(4-Chlorophenyl)-5-(2-nitrophenyl)oxazol-4-yl)(4-(2-(dimethylamino)ethyl)piperazin-1-yl)methanone] | 63 | 33 | – | – | – | – | Cellular viability (%) (+) microsome ([1]; at 50 μM): 31 at %; Cellular viability (%) (−) microsome ([1]; at 50 μM): 19 at % |
| CC(=O)NCCNC(=O)c1nc(-c2ccc(C(F)(F)F)cc2)oc1-c1ccccc1[N+](=O)[O-] [Compound 285, N-(2-acetamidoethyl)-5-(2-nitrophenyl)-2-(4-(trifluoromethyl)phenyl)oxazole-4-carboxamide] | 72 | 73 | – | – | – | – | Cellular viability (%) (+) microsome ([1]; at 30 μM): 59 at %; Cellular viability (%) (−) microsome ([1]; at 30 μM): 54 at % |
| CCNC(=O)c1nc(-c2ccc(C(F)(F)F)cc2)oc1-c1ccccc1 [Compound 294, N-Ethyl-5-phenyl-2-(4-(trifluoromethyl)phenyl)oxazole-4-carboxamide] | – | 95 | 88 | 94 | 90 | 95 | inhibition at 0.1 µM [2]: 50%; EC50 [2]: 0.13 µM |
| CCNC(=O)c1nc(-c2ccc(C(F)(F)F)cc2)oc1-c1cccnc1 [Compound 307, N-Ethyl-5-(pyridin-3-yl)-2-(4-(trifluoromethyl)phenyl)oxazole-4-carboxamide] | – | 106 | 69 | 79 | 108 | 105 | inhibition at 0.1 µM [2]: 61%; EC50 [2]: 0.11 µM |
| CCCNC(=O)c1nc(-c2ccc(C(F)(F)F)cc2)oc1-c1cccnc1 [Compound 308, N-Propyl-5-(pyridin-3-yl)-2-(4-(trifluoromethyl)phenyl)oxazole-4-carboxamide] | – | – | 56 | 62 | 29 | 27 | – |
| CCNC(=O)c1nc(-c2ccc(SC)cc2)oc1-c1ccccc1 [Compound 316, N-Ethyl-2-(4-(methylthio)phenyl)-5-phenyloxazole-4-carboxamide] | – | 47 | 69 | 77 | 100 | 84 | inhibition at 0.1 µM [2]: 25%; EC50 [2]: 0.35 µM |
| CCCNC(=O)c1nc(-c2ccc(SC)cc2)oc1-c1ccccc1 [Compound 317, 2-(4-(Methylthio)phenyl)-5-phenyl-N-propyloxazole-4-carboxamide] | – | – | 44 | 43 | 89 | 47 | – |
| CCNC(=O)c1nc(-c2ccc(C(F)(F)F)cc2)oc1-c1cc(O)cc(O)c1 [Compound 322, 5-(3,5-Dihydroxyphenyl)-N-ethyl-2-(4-(trifluoromethyl)phenyl)oxazole-4-carboxamide] | – | – | 86 | 73 | 90 | 63 | – |
| CCNC(=O)c1nc(-c2ccc(C(F)(F)F)cc2)oc1-c1cc(O)c(O)c(O)c1 [Compound 323, N-Ethyl-2-(4-(trifluoromethyl)phenyl)-5-(3,4,5-trihydroxyphenyl)oxazole-4-carboxamide] | – | – | 45 | 84 | 77 | 63 | – |
